Results as given in publication PMC9721423, “Novel benzo chromene derivatives: design, synthesis, molecular docking, cell cycle arrest, and apoptosis induction in human acute myeloid leukemia HL-60 cells” (Journal of Enzyme Inhibition and Medicinal Chemistry, 2022).
Like-named read-outs stand apart in the source and are kept apart here.

Experiments:
COLO 205 = test: cells; set-up: species or system NCI-60 human tumour cell lines; NCI-60 five-dose growth inhibition screen, sulforhodamine B protein stain; conditions: Homo sapiens, COLO 205, 48 h
Experimental: (§1) All the newly synthesised 28 compounds were selected for single-dose testing. NCI60 single-dose testing is performed in all 60 cell lines according to the reported assay (National Cancer Institute, https://dtp.cancer.gov/) (National Cancer Institute https://dtp.cancer.gov/discovery_development/nci-60/), compounds were dissolved in DMSO: glycerol […] and are stored in a −70 °C freezer. The prepared compounds were added at single concentration of 1 0^−5 M and the culture was incubated for 48 h. End point determinations were made with a protein binding dye, sulforhodamine B (SRB). The human tumour cell lines were derived from nine different cancer types: leukaemia, melanoma, lung, colon, central nervous system (CNS), ovarian, renal, prostate, and breast cancers. Dose–response curves for these compounds were created by plotting the percentage growth (PGs or % growth) against log10 of the corresponding concentration for every cell line. Three response parameters, GI50 (Median Growth Inhibitory Concentration), TGI (Total Growth Inhibitory Concentration), and LC50 (Median Lethal Concentration) were calculated[54] (National Cancer Institute, https://dtp.cancer.gov/discovery_development/nci-60/) (National Cancer Institute, https://dtp.cancer.gov/)[55] for compounds 5a and 6a. […] Furthermore, the average sensitivity of all cell lines towards the compound is termed as the full panel mean graph midpoints (MG-MID). The ratio obtained by dividing the full panel mean graph midpoints (MG-MID) concentration by the individual subpanel MG-MID concentrations (obtained as the average sensitivity of all cell lines of a particular subpanel towards the test compound) is considered a criterion for the compound selectivity towards the corresponding cell line. Ratios greater than 6 indicate high selectivity while ratios between 3 and 6 refer to moderate selectivity whereas compounds not meeting either of these criteria were rated non-selective[56].

M14 = test: cells; set-up: species or system NCI-60 human tumour cell lines; NCI-60 five-dose growth inhibition screen, sulforhodamine B protein stain; conditions: Homo sapiens, M14, 48 h
Experimental: as §1

HCT-15 = test: cells; set-up: species or system NCI-60 human tumour cell lines; NCI-60 five-dose growth inhibition screen, sulforhodamine B protein stain; conditions: Homo sapiens, HCT-15, 48 h
Experimental: as §1

NCI-H460 = test: cells; set-up: species or system NCI-60 human tumour cell lines; NCI-60 five-dose growth inhibition screen, sulforhodamine B protein stain; conditions: Homo sapiens, NCI-H460, 48 h
Experimental: as §1

OVCAR-8 = test: cells; set-up: species or system NCI-60 human tumour cell lines; NCI-60 five-dose growth inhibition screen, sulforhodamine B protein stain; conditions: Homo sapiens, OVCAR-8, 48 h
Experimental: as §1

RXF 393 = test: cells; set-up: species or system NCI-60 human tumour cell lines; NCI-60 five-dose growth inhibition screen, sulforhodamine B protein stain; conditions: Homo sapiens, RXF 393, 48 h
Experimental: as §1

CCRF-CEM = test: cells; set-up: species or system NCI-60 human tumour cell lines; NCI-60 five-dose growth inhibition screen, sulforhodamine B protein stain; conditions: Homo sapiens, CCRF-CEM, 48 h
Experimental: as §1

OVCAR-5 = test: cells; set-up: species or system NCI-60 human tumour cell lines; NCI-60 five-dose growth inhibition screen, sulforhodamine B protein stain; conditions: Homo sapiens, OVCAR-5, 48 h
Experimental: as §1

MOLT-4 = test: cells; set-up: species or system NCI-60 human tumour cell lines; NCI-60 five-dose growth inhibition screen, sulforhodamine B protein stain; conditions: Homo sapiens, MOLT-4, 48 h
Experimental: as §1

786-0 = test: cells; set-up: species or system NCI-60 human tumour cell lines; NCI-60 five-dose growth inhibition screen, sulforhodamine B protein stain; conditions: Homo sapiens, 786-0, 48 h
Experimental: as §1

NCI-H522 = test: cells; set-up: species or system NCI-60 human tumour cell lines; NCI-60 five-dose growth inhibition screen, sulforhodamine B protein stain; conditions: Homo sapiens, NCI-H522, 48 h
Experimental: as §1

PC-3 = test: cells; set-up: species or system NCI-60 human tumour cell lines; NCI-60 five-dose growth inhibition screen, sulforhodamine B protein stain; conditions: Homo sapiens, PC-3, 48 h
Experimental: as §1

MDA-MB-231/ATCC = test: cells; set-up: species or system NCI-60 human tumour cell lines; NCI-60 five-dose growth inhibition screen, sulforhodamine B protein stain; conditions: Homo sapiens, MDA-MB-231, 48 h
Experimental: as §1

SK-OV-3 = test: cells; set-up: species or system NCI-60 human tumour cell lines; NCI-60 five-dose growth inhibition screen, sulforhodamine B protein stain; conditions: Homo sapiens, SK-OV-3, 48 h
Experimental: as §1

KM12 = test: cells; set-up: species or system NCI-60 human tumour cell lines; NCI-60 five-dose growth inhibition screen, sulforhodamine B protein stain; conditions: Homo sapiens, KM12, 48 h
Experimental: as §1

OVCAR-3 = test: cells; set-up: species or system NCI-60 human tumour cell lines; NCI-60 five-dose growth inhibition screen, sulforhodamine B protein stain; conditions: Homo sapiens, OVCAR-3, 48 h
Experimental: as §1

CDK-2 = molecular target: T1, CDK-2 (Homo sapiens, UniProt P24941); test: Kinase-Glo MAX luminescence kinase assay, CDK-2/cyclin A2 kit; type: biochemical; conditions: read-out: CDK-2/ cyclin A2 IC50 (μM) ± SD
T1 construct: gene CDK2; with cyclin A2

N=C(NO)C1=C(N)Oc2c(ccc3ccccc23)C1c1ccccc1 (stereo not shown) [5a, 2-Amino-4-phenyl-N-hydroxy-4H-benzo[h]chromene-3-carboxamidine]
GI50 (COLO 205; read-out: GI50 5a): 460 nM | GI50 (M14; read-out: GI50 5a): 130 nM | GI50 (HCT-15; read-out: GI50 5a): 130 nM | GI50 (NCI-H460; read-out: GI50 5a): 310 nM | GI50 (OVCAR-8; read-out: GI50 5a): 400 nM | GI50 (RXF 393; read-out: GI50 5a): 200 nM | GI50 (CCRF-CEM; read-out: GI50 5a): 380 nM | GI50 (OVCAR-5): 610 nM | GI50 (MOLT-4; read-out: GI50 5a): 430 nM | GI50 (786-0; read-out: GI50 5a): 560 nM | GI50 (NCI-H522; read-out: GI50 5a): 60 nM | GI50 (PC-3; read-out: GI50 5a): 230 nM | GI50 (MDA-MB-231/ATCC; read-out: GI50 5a): 630 nM | GI50 (SK-OV-3; read-out: GI50 5a): 620 nM | GI50 (KM12; read-out: GI50 5a): 220 nM | GI50 (OVCAR-3; read-out: GI50 5a): 180 nM | IC50 (CDK-2): 0.171 µM

CC(=O)NC1=C(C#N)C(c2ccccc2)c2ccc3ccccc3c2O1 (stereo not shown) [6a, N-(3-Cyano-4-phenyl-4H-benzo[h]chromen-2-yl)acetamide]
GI50 (COLO 205; read-out: GI50 6a): 610 nM | GI50 (M14; read-out: GI50 6a): 560 nM | GI50 (HCT-15; read-out: GI50 6a): 510 nM | GI50 (NCI-H460; read-out: GI50 6a): 370 nM | GI50 (OVCAR-8; read-out: GI50 6a): 630 nM | GI50 (RXF 393; read-out: GI50 6a): 270 nM | GI50 (CCRF-CEM; read-out: GI50 6a): 390 nM | GI50 (OVCAR-5; read-out: GI50 6a): 2100 nM | GI50 (MOLT-4; read-out: GI50 6a): 490 nM | GI50 (786-0; read-out: GI50 6a): 490 nM | GI50 (NCI-H522; read-out: GI50 6a): 220 nM | GI50 (PC-3; read-out: GI50 6a): 460 nM | GI50 (MDA-MB-231/ATCC; read-out: GI50 6a): 1250 nM | GI50 (SK-OV-3; read-out: GI50 6a): 490 nM | GI50 (KM12; read-out: GI50 6a): 430 nM | GI50 (OVCAR-3; read-out: GI50 6a): 340 nM | IC50 (CDK-2): 0.301 µM
